Molecular target: T1, SIRT1 (Homo sapiens, UniProt Q96EB6)
T1 sequence (Q96EB6 1-747): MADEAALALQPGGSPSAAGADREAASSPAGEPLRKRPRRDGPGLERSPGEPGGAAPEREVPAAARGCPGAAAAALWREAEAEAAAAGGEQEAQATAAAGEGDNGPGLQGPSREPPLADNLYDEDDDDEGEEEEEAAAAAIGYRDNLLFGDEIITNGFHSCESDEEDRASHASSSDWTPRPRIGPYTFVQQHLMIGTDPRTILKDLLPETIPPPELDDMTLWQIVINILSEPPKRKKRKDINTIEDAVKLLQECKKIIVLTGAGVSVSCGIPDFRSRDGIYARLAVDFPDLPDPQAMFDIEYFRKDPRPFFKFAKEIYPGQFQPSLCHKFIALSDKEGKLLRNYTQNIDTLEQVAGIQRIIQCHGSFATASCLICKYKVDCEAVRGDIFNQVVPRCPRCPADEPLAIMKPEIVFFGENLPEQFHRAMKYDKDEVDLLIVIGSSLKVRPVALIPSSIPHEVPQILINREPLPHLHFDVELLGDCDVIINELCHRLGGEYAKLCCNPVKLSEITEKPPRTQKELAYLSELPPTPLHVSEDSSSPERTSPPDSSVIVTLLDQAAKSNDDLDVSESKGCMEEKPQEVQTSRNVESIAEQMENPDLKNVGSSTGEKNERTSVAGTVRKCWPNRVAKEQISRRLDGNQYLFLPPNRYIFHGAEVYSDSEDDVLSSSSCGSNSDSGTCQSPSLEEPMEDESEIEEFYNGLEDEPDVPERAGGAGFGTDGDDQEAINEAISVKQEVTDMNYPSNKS
Assay: TAMRA based mass spectrometry assay of SIRT1 activity
Assay type: biochemical
Conditions: TAMRA assay; for TAMRA EC1.5 (μM): concentration giving 150% activation of SIRT1; for Emax: percent maximum fold activation, read-out: TAMRA % Fold Act
Outline: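 Deacetylation of a biotinylated, TAMRA-tagged p53-based peptide (0.5 μM) by 10 nM His-tagged SIRT1 with 120 μM βNAD+, 25 °C for 25 min, pH 8 Tris-acetate buffer, across a compound concentration range. Quenched by formic acid and read by mass spec as product peptide or OAADPR; activity relative to DMSO reactions, nicotinamide defining maximal inhibition.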

Compound	TAMRA EC1.5 (μM)	Emax [%]
Cc1nc2ccc(-c3ccccc3Cl)nn2c1C(=O)Nc1cccnn1 [Compound 715]	B (EC1.5 1-25 μM)	≥ 350
COc1ccc(NC(=O)c2c(C)nc3ccc(-c4ccccc4C)nn23)nn1 [Compound 720]	B (EC1.5 1-25 μM)	≥ 350
CCOc1ccc(NC(=O)c2c(C)nc3ccc(-c4ccccc4C)nn23)nn1 [Compound 721]	B (EC1.5 1-25 μM)	< 350
Cc1cnc(NC(=O)c2cnn3ccc(-c4ccccc4C(F)(F)F)nc23)cn1 [Compound 723, N-(5-methylpyrazin-2-yl)-5-(2-(trifluoromethyl)phenyl)pyrazolo[1,5-a]pyrimidine-3-carboxamide]	A (EC1.5<1 μM)	≥ 350
Cc1nccc(C(=O)Nc2cnn3ccc(-c4ccccc4OC(F)(F)F)nc23)n1 [Compound 726]	A (EC1.5<1 μM)	≥ 350
Cc1cc(C(=O)Nc2cnn3ccc(-c4ccccc4OC(F)(F)F)nc23)nc(C)n1 [Compound 727]	A (EC1.5<1 μM)	≥ 350
Cc1nccc(NC(=O)c2c(C)nc3c(C)cc(-c4ccccc4C(F)(F)F)nn23)n1 [Compound 729]	A (EC1.5<1 μM)	≥ 350
Cc1nc2c(C)cc(-c3ccccc3C(F)(F)F)nn2c1C(=O)Nc1ccnc(C2CC2)n1 [Compound 732]	A (EC1.5<1 μM)	≥ 350
COCc1nccc(NC(=O)c2c(C)nc3c(C)cc(-c4ccccc4C(F)(F)F)nn23)n1 [Compound 733]	A (EC1.5<1 μM)	≥ 350
O=C(Nc1cnn2ccc(-c3ccccc3OC(F)(F)F)nc12)c1cnc(O)cn1 [Compound 735]	B (EC1.5 1-25 μM)	≥ 350
Cc1nc2c(N3CCOCC3)cc(-c3ccccc3C(F)(F)F)nn2c1C(=O)Nc1cccnn1 [Compound 738, 2-methyl-8-morpholino-N-(pyridazin-3-yl)-6-(2-(trifluoromethyl)phenyl)imidazo[1,2-b]pyridazine-3-carboxamide]	A (EC1.5<1 μM)	≥ 350
CCOc1ccc(NC(=O)c2c(C)nc3ccc(-c4ccccc4F)nn23)nn1 [Compound 741]	B (EC1.5 1-25 μM)	< 350
CCOc1ccc(NC(=O)c2c(C)nc3ccc(-c4ccccc4Cl)nn23)nn1 [Compound 744]	A (EC1.5<1 μM)	< 350
Cc1nc2c(OC[C@H]3COC(C)(C)O3)cc(-c3ccccc3C(F)(F)F)nn2c1C(=O)Nc1cccnn1 [Compound 745]	A (EC1.5<1 μM)	≥ 350
O=C(Nc1cnn2ccc(-c3ccccc3C(F)(F)F)nc12)c1ncccc1F [Compound 747]	A (EC1.5<1 μM)	≥ 350
Cc1cc(C)nc(C(=O)Nc2cnn3ccc(-c4ccccc4OC(F)(F)F)nc23)c1 [Compound 750]	A (EC1.5<1 μM)	≥ 350
COc1cccc(C(=O)Nc2cnn3ccc(-c4ccccc4OC(F)(F)F)nc23)n1 [Compound 751]	A (EC1.5<1 μM)	≥ 350
Cc1cnc(NC(=O)c2c(C)nn3ccc(-c4ccccc4C(F)(F)F)nc23)c(C)n1 [Compound 753]	B (EC1.5 1-25 μM)	≥ 350
Cc1scnc1C(=O)Nc1cnn2ccc(-c3ccccc3OC(F)(F)F)nc12 [Compound 756]	B (EC1.5 1-25 μM)	≥ 350
Cc1cc(C)nc(NC(=O)c2c(C)nc3ccc(-c4ccccc4OC[C@H](O)CO)nn23)c1 [Compound 757]	B (EC1.5 1-25 μM)	≥ 350
COc1ccc(NC(=O)c2c(C)nc3ccc(-c4cccc(C)c4)nn23)nn1 [Compound 759]	A (EC1.5<1 μM)	< 350
CCOc1ccc(NC(=O)c2c(C)nc3ccc(-c4cccc(C)c4)nn23)nn1 [Compound 760]	A (EC1.5<1 μM)	< 350

Other lines, results leading:

TAMRA EC1.5 (μM)	Emax [%]	Compound
B (EC1.5 1-25 μM)	< 350	CCOc1ccc(NC(=O)c2c(C)nc3ccc(-c4cccc(F)c4)nn23)nn1 [Compound 762]
A (EC1.5<1 μM)	≥ 350	Cc1nc2ccc(-c3ccccc3Br)nn2c1C(=O)Nc1cccnn1 [Compound 763]
A (EC1.5<1 μM)	≥ 350	Cc1ccc(NC(=O)c2c(C)nc3ccc(-c4ccccc4Br)nn23)nn1 [Compound 764]
A (EC1.5<1 μM)	≥ 350	COc1ccc(NC(=O)c2c(C)nc3ccc(-c4ccccc4Br)nn23)nn1 [Compound 765]
A (EC1.5<1 μM)	≥ 350	Cc1nn2ccc(-c3ccccc3C(F)(F)F)nc2c1C(=O)Nc1cncc(F)c1 [Compound 768]
A (EC1.5<1 μM)	≥ 350	O=C(Nc1cnn2ccc(-c3ccccc3OC(F)(F)F)nc12)c1cccc(-n2cnnc2)n1 [Compound 769]
A (EC1.5<1 μM)	≥ 350	CC(C)c1csc(C(=O)Nc2cnn3ccc(-c4ccccc4OC(F)(F)F)nc23)n1 [Compound 771]
A (EC1.5<1 μM)	< 350	Cc1nc2ccc(-c3ccccc3OC[C@H](O)CO)nn2c1C(=O)Nc1ccncn1 [Compound 774]
A (EC1.5<1 μM)	≥ 350	Cc1nc2ccc(-c3ccccc3OC[C@H](O)CO)nn2c1C(=O)Nc1cnccn1 [Compound 775]
A (EC1.5<1 μM)	≥ 350	Cc1cc(C)nc(NC(=O)c2c(C)nn3ccc(-c4ccccc4C(F)(F)F)nc23)n1 [Compound 777]
A (EC1.5<1 μM)	≥ 350	O=C(Nc1cnn2ccc(-c3ccccc3OC(F)(F)F)nc12)c1nc2c(s1)CCCC2 [Compound 780]
B (EC1.5 1-25 μM)	≥ 350	O=C(Nc1cnn2ccc(-c3ccccc3OC(F)(F)F)nc12)c1nccs1 [Compound 781]
A (EC1.5<1 μM)	≥ 350	O=C(Nc1cnn2ccc(-c3ccccc3C(F)(F)F)nc12)c1cncc(OC[C@@H](O)CO)n1 [Compound 783]
A (EC1.5<1 μM)	≥ 350	CCOc1nccc(NC(=O)c2c(C)nn3ccc(-c4ccccc4C(F)(F)F)nc23)n1 [Compound 786]
A (EC1.5<1 μM)	≥ 350	Cc1cc(NC(=O)c2c(C)nn3ccc(-c4ccccc4C(F)(F)F)nc23)nc(C)n1 [Compound 787]
A (EC1.5<1 μM)	≥ 350	Cc1nn2ccc(-c3ccccc3C(F)(F)F)nc2c1C(=O)Nc1ccncc1F [Compound 789]
A (EC1.5<1 μM)	≥ 350	Cc1cc(C)nc(NC(=O)c2cnc3ccc(-c4ccccc4OC[C@H](O)CO)nn23)c1 [Compound 792]
A (EC1.5<1 μM)	≥ 350	COc1nccc(NC(=O)c2c(C)nn3ccc(-c4ccccc4C(F)(F)F)nc23)n1 [Compound 793, N-(2-methoxypyrimidin-4-yl)-2-methyl-5-(2-(trifluoromethyl)phenyl)pyrazolo[1,5-a]pyrimidine-3-carboxamide]
A (EC1.5<1 μM)	≥ 350	Cc1cc(C(=O)Nc2cnn3ccc(-c4ccccc4C(F)(F)F)nc23)nc(C)n1 [Compound 795]
A (EC1.5<1 μM)	≥ 350	Cc1ccnc(NC(=O)c2c(C)nc3ccc(-c4cccc(OC[C@H](O)CO)c4)nn23)c1 [Compound 798]
A (EC1.5<1 μM)	≥ 350	Cc1cc(C)nc(C(=O)Nc2cnn3ccc(-c4ccccc4C(F)(F)F)nc23)n1 [Compound 801]
A (EC1.5<1 μM)	≥ 350	Cc1cccc(NC(=O)c2cnc3ccc(-c4ccccc4OC[C@H](O)CO)nn23)n1 [Compound 804]
A (EC1.5<1 μM)	≥ 350	Cc1cc(NC(=O)c2cnc3ccc(-c4ccccc4OC[C@H](O)CO)nn23)cc(C)n1 [Compound 805]
A (EC1.5<1 μM)	≥ 350	CCOc1nccc(NC(=O)c2cnn3ccc(-c4ccccc4C(F)(F)F)nc23)n1 [Compound 807]
A (EC1.5<1 μM)	≥ 350	O=C(Nc1cnn2ccc(-c3ccccc3C(F)(F)F)nc12)c1nc2c(s1)CCCC2 [Compound 810]
A (EC1.5<1 μM)	≥ 350	Cc1ccnc(NC(=O)c2cnc3ccc(-c4ccccc4OC[C@H](O)CO)nn23)c1 [Compound 811]
A (EC1.5<1 μM)	≥ 350	O=C(Nc1cc(O)ncn1)c1cnn2ccc(-c3ccccc3C(F)(F)F)nc12 [Compound 813]
A (EC1.5<1 μM)	≥ 350	Cc1ccnc(NC(=O)c2c(C)nc3ccc(-c4ccccc4OC[C@H](O)CO)nn23)c1 [Compound 817]

From US9957271B2, “Substituted bicyclic aza-heterocycles and analogues as sirtuin modulators” (GlaxoSmithKline, LLC, priority 2012, dated 2018)
